6 molecules from ChEMBL document CHEMBL1287767, “Experimental solubility profiling of marketed CNS drugs, exploring solubility limit of CNS discovery candidate” (Bioorg Med Chem Lett, 2010) can be followed below.

Data set [1] can be described thus: Solubility of the compound in 0.1 M phosphate buffer at 600 uM at pH 7.4 after 24 hrs by LC/MS/MS analysis. The conditions noted are these: pH 7.4.
A short description of data set [2]: Solubility of the compound. Type of data set: physicochemical.
Data set [3] can be described thus: Solubility of the compound in Mcllvaine buffer at pH 7.4. The data set is classed as physicochemical. The settings on record: McIlvaine buffer.
Data set [4] can be described thus: Solubility of the compound in water at pH 7.4. Type of data set: physicochemical.
Data set [5] can be described thus: Solubility of the compound in water at pH 7. Type of data set: physicochemical.
A short description of data set [6]: Solubility of the compound at pH 7.95. Type of data set: physicochemical. The settings on record: buffer.

SMILES strings stand for the structures. ≈ marks a conversion by molar mass, not a printed value. A value given as a limit tells only on which side of the number the result lay.

For the molecule `CCCN[C@H]1CCc2nc(N)sc2C1` [PRAMIPEXOLE], in data set [1] (buffer), the solubility at 24 h, 600 µM is more than 500 µM. In data set [2], this molecule had a solubility of more than 10000 µg/mL.

In the case of `Nc1nnc(-c2cccc(Cl)c2Cl)c(N)n1` [LAMOTRIGINE], in data set [1] (0.1 M phosphate buffer), the solubility at 24 h, 600 µM is 307 µM (≈ 78.6 µg/mL). Further, the concentration in solution in data set [3] (solubility) came to 0.48 µg/mL (≈ 1.87 µM).

The molecule `CCCCN1CCCCC1C(=O)Nc1c(C)cccc1C` (configuration not stated) [BUPIVACAINE] displayed a solubility at 24 h, 600 µM in data set [1] (0.1 M phosphate buffer) of 352 µM (≈ 102 µg/mL). Moreover, the solubility in data set [4] is 420 µg/mL (≈ 1460 µM).

Molecule `Cc1nnc2n1-c1ccc(Cl)cc1C(c1ccccc1)=NC2` [ALPRAZOLAM] displayed a solubility at 24 h, 600 µM in data set [1] (0.1 M phosphate buffer) of 213 µM (≈ 65.8 µg/mL). Also, the solubility in data set [5] was determined as 40 µg/mL (≈ 130 µM).

As to `Cc1ncc2n1-c1ccc(Cl)cc1C(c1ccccc1F)=NC2` [MIDAZOLAM], in data set [1] (0.1 M phosphate buffer), the solubility at 24 h, 600 µM came out at 392 µM (≈ 128 µg/mL). The molecule also had a solubility in data set [6] of 55 µg/mL (≈ 169 µM).

`O=C1Cc2cc(CCN3CCN(c4nsc5ccccc45)CC3)c(Cl)cc2N1` [ZIPRASIDONE]: the solubility at 24 h, 600 µM in data set [1] (0.1 M phosphate buffer) was found to be 1.05 µM (≈ 0.434 µg/mL). In addition, in data set [2], the solubility turned out to be 0.08 µg/mL (≈ 0.194 µM).
